Assay results taken from publication PMC11684006, “A Putative Frizzled 7-Targeting Compound Acts as a Firefly Luciferase Inhibitor” (Journal of Medicinal Chemistry, 2024).

Target: T1, Firefly luciferase (Fluc) (Photinus pyralis, UniProt P08659)
T1 construct: Fluc amplified from the Super8X TOPFlash reporter plasmid, constitutively expressed under a CMV promoter
Test: Fluc bioluminescence in lysates of compound-treated ΔFZD1–[…] HEK293T cells expressing CMV-driven Fluc (counter assay); Rluc and Nluc unaffected
Format: cell-based

T1 sequence (P08659 whole entry): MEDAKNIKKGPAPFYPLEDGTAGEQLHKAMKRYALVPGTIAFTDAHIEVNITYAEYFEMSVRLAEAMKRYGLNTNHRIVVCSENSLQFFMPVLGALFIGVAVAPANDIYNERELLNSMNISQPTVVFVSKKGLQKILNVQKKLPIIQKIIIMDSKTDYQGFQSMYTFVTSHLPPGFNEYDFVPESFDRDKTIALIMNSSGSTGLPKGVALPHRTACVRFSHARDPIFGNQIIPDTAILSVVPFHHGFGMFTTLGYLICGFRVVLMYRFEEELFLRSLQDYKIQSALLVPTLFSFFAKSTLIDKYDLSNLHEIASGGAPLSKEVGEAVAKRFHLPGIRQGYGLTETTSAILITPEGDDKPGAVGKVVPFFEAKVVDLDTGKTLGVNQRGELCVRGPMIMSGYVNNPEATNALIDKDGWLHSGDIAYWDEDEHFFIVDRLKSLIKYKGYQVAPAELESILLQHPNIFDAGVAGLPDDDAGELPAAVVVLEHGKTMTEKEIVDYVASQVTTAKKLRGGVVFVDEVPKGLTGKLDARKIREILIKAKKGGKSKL

- IC50: 25 nM
Structure (SMILES): Cc1ccc(C(=O)Nc2ccc(SCC(=O)Nc3nc(-c4ccccc4)cs3)cc2)c(C)c1 [compound 3, 2,4-Dimethyl-N-(4-((2-oxo-2-((4-phenylthiazol-2-yl)amino)ethyl)thio)phenyl)benzamide]
